Counter-ions that a name gives are not always drawn.
Experiments:
Type in all cases: in vivo
[1] = test system: rice cv. Cheniere; test: Pouch assay with PESA salt seed treatment; root length; settings: for Root Length: untreated 9.8
Method: Procedure for Treating Samples of Seed in the Laboratory
(§1) Seed was sieved with a screen of mesh size appropriate to remove broken seeds and small trash. Cracked or otherwise damaged seeds were removed. The seed was well mixed, and 50 g samples were weighed into small plastic trays. Seed treatment slurries were made by adding measured amounts of PESA or its salts and other AIs to sufficient water to bring them up to a standard volume, typically 2 ml. A fungicide (Maxim XL; Syngenta Agricultural Products, Greensboro, N.C.), a polymeric binder (CF-Clear; Becker-Underwood, Ames, Iowa), and a colorant (Color Coat Red; Becker-Underwood, Ames, Iowa) were also included in the slurry at label rates. A small aliquot of this slurry was applied to the seed using the Hege 11 coater (Wintersteiger, Salt Lake City, Utah) with a six-inch bowl at a slurry rate of 30 ounces per 100 lbs of seed. The slurry was deposited drop-wise on the spinning disk atomizer using a syringe.
After treatment, each seed sample was placed in plastic trays and dried at a room temperature for 20 to 60 minutes. The samples were then placed in small plastic bags. Samples were spot-checked using a water activity meter to make sure the water activity is below 0.7.
(§2) Seeds were placed in germination pouches consisting of germination paper hydrated with sterile water that was an insert in a gas-permeable 16×14 cm plastic pouch (CYG Pouch; Mega International, St. Paul, Minn.). In these examples, in pouch solution evaluation, PESA sodium salt or other active ingredients were added to the sterile water in the pouch. The pouches were arranged in a completely randomized block design in growth racks and placed in 19-liter polycarbonate food storage containers (Rubbermaid Commercial Products, Winchester, Va.). The sealed containers were held in an upright growth cabinet maintained at 25 C with a 12 hour light: 12 hour dark photoperiod. After 6 days, the containers were removed from the growth cabinet, and the lengths of the roots and shoot were measured.
Rice cv. Chemere was treated with PESA sodium salt prior to growing in the pouch. The treated seeds were then grown in the pouch in a dose-dependent series of trifluralin concentrations (Table 2). […] This confirms that seed treatment with the PESA salt protects or safens rice from the negative effects of trifluralin herbicide on root growth.

[2] = test system: rice cv. Cheniere; test: Emergence of seed-treated rice seeded onto soil previously treated with herbicide; settings: for Percent Emergence at 9 days after planting: untreated 90
Description: as §1, with “Seed treatment slurries were made by adding measured amounts of PESA or its salts and other AIs to sufficient water to bring them up to a standard volume, typically 2 ml.” left out
Rice cv. […] It was then seeded onto soil which was previously sprayed with the pendimethalin herbicide Prowl H2O® (BASF Agricultural Products, Research Triangle Park, N.C.).
After seed treatment, rice was seeded into soil previously treated with the dithiopyr herbicide Dimension®.
Rice seed treated with PESA was tested for its ability to protect rice from the herbicide Roundup WeatherMax® (glyphosate). After seed treatment, rice was seeded into soil previously treated with the Roundup WeatherMax®.

[3] = test system: rice cv. Nipponbare; test: Hydroponic assay; total root length and shoot length; settings: for Shoot Length / Total Root Length: 40 ppm PESA salt
Method: Where hydroponically-grown rice was used in studies, the seeds were pre-incubated in water at 30 C for 2 days to stimulate germination. Three seeds were placed on a float and cultivated hydroponically in a test tube (25 mm×200 mm), which contained 50 ml of Kimura B nutrient solution at ⅛th strength supplemented with herbicides and PESA sodium salt. The exposure of the roots to the light was prevented by wrapping the tubes with aluminum foil. The rice seedlings were incubated in a growth cabinet at 25 C under continuous light for 14 days, and the total root length and shoot length were measured. Total root length (cm) was the root length/plant determined following scanning with WinRhizo software (Regent Instruments INC, Toronto, Canada).

[4] = test system: cotton; test: Pouch assay; root and shoot length of cotton; settings: for Shoot Length / Root Length: 30 ppm PESA salt; for Shoot Length: untreated 4.7; for Root Length: untreated 7.7
Method: as §2

[5] = 40 ppm PESA salt with 0.1 ppm dicamba
[6] = 40 ppm PESA salt with 0.1 ppm imazosulfuron
[7] = 40 ppm PESA salt with 1 ppm flumioxazin

O=C(O)CCC(=O)NCCc1ccccc1 [PESA salt, N-(2-phenylethyl)succinamic acid]
protection of root growth by seed treatment ([1]; PESA salt seed treatment, trifluralin 50 ppm): significant protection against intermediate rates of trifluralin (50 ppm) | Root Length ([1]; seed treatment 10 g PESA salt/100 lbs of seed, 0 ppm trifluralin): 10.7 cm | Root Length ([1]; seed treatment 10 g PESA salt/100 lbs of seed, 50 ppm trifluralin): 4.6 cm | Root Length ([1]; seed treatment 10 g PESA salt/100 lbs of seed, 100 ppm trifluralin): 0.3 cm | Root Length ([1]; seed treatment 25 g PESA salt/100 lbs of seed, 0 ppm trifluralin): 10.1 cm | Root Length ([1]; seed treatment 25 g PESA salt/100 lbs of seed, 50 ppm trifluralin): 5.2 cm | Root Length ([1]; seed treatment 25 g PESA salt/100 lbs of seed, 100 ppm trifluralin): 0.3 cm | Root Length ([1]; seed treatment 50 g PESA salt/100 lbs of seed, 0 ppm trifluralin): 10.3 cm | Root Length ([1]; seed treatment 50 g PESA salt/100 lbs of seed, 50 ppm trifluralin): 6.0 cm | Root Length ([1]; seed treatment 50 g PESA salt/100 lbs of seed, 100 ppm trifluralin): 0.3 cm | Percent Emergence at 12 days after planting ([2]; Dimension (dithiopyr) 0.25 pints/acre, seed treatment none (Control), 1 g GA3 and/or 50 g PESA salt per 100 lbs of seed, untreated 72.1): 61.0% | Percent Emergence at 12 days after planting ([2]; Dimension (dithiopyr) 0.5 pints/acre, seed treatment none (Control), 1 g GA3 and/or 50 g PESA salt per 100 lbs of seed, untreated 72.1): 13.9% | protection of emergence from glyphosate ([2]; PESA seed treatment, soil treated with Roundup WeatherMax, at 90 μg/cm^2): could protect the rice seedlings from glyphosate | Percent Emergence at 12 days after planting ([2]; Prowl (pendimethalin) 0.25 pints/acre, seed treatment none (Control), 1 g GA3 and/or 50 g PESA salt per 100 lbs of seed, untreated 84.5): 79.0% | Percent Emergence at 12 days after planting ([2]; Prowl (pendimethalin) 0.5 pints/acre, seed treatment none (Control), 1 g GA3 and/or 50 g PESA salt per 100 lbs of seed, untreated 84.5): 80.7% | Percent Emergence at 12 days after planting ([2]; Prowl (pendimethalin) 2 pints/acre, seed treatment none (Control), 1 g GA3 and/or 50 g PESA salt per 100 lbs of seed, untreated 84.5): 61.0% | Percent Emergence at 12 days after planting ([2]; no Dimension (Control), seed treatment 1 g GA3 and/or 50 g PESA salt per 100 lbs of seed, untreated 72.1): 77.2% | Percent Emergence at 12 days after planting ([2]; no Prowl (Control), seed treatment 1 g GA3 and/or 50 g PESA salt per 100 lbs of seed, untreated 84.5): 86.1% | Percent Emergence at 9 days after planting ([2]; seed treatment 25 g PESA salt per 100 kg of seed, glyphosate 0 μg/cm2): 80% | Percent Emergence at 9 days after planting ([2]; seed treatment 25 g PESA salt per 100 kg of seed, glyphosate 23 μg/cm2): 84% | Percent Emergence at 9 days after planting ([2]; seed treatment 25 g PESA salt per 100 kg of seed, glyphosate 90 μg/cm2): 28% | Percent Emergence at 9 days after planting ([2]; seed treatment 50 g PESA salt per 100 kg of seed, glyphosate 0 μg/cm2): 92% | Percent Emergence at 9 days after planting ([2]; seed treatment 50 g PESA salt per 100 kg of seed, glyphosate 23 μg/cm2): 78% | Percent Emergence at 9 days after planting ([2]; seed treatment 50 g PESA salt per 100 kg of seed, glyphosate 90 μg/cm2): 38% | protection of emergence from pendimethalin ([2]; seed treatment, soil sprayed with Prowl H2O, particularly at 2 pints/acre): could protect the rice seedlings from pendimethalin | protection of emergence from dithiopyr ([2]; seed treatment, soil treated with Dimension, particularly at 0.25 and 0.5 pints/acre): could protect the rice seedlings from dithiopyr | protection of roots from herbicide [3, 5]: largely protected the roots from the negative effects of dicamba | protection of shoots from herbicide [3, 5]: largely protected the shoots from the negative effects of dicamba | total root length increased by, as compared with untreated control [3, 5]: 61% | protection of roots from herbicide [3, 6]: largely protected the roots from the negative effects of imazosulfuron | total root length increased by, as compared with untreated control [3, 6]: 87% | protection of roots from herbicide [3, 7]: protected the roots from the negative effects of flumioxazin | protection of shoots from herbicide [3, 7]: largely protected the shoots from the negative effects of flumioxazin | protection of shoots from herbicide ([3]; 40 ppm PESA salt with 1 ppm imazosulfuron): largely protected the shoots from the negative effects of the herbicide | protection of roots from herbicide ([3]; 40 ppm PESA salt with 3 ppm clodinafop-propargyl): protected the roots from the negative effects of the herbicide | Shoot Length ([3]; 0 ppm clodinafop-propargyl, untreated 10.6): 13.3 cm | Total Root Length ([3]; 0 ppm clodinafop-propargyl, untreated 52.1): 193.9 cm | Shoot Length ([3]; 0 ppm dicamba, untreated 11.4): 15.1 cm | Total Root Length ([3]; 0 ppm dicamba, untreated 44.9): 121.9 cm | Shoot Length ([3]; 0 ppm flumioxazin, untreated 10.6): 13.3 cm | Total Root Length ([3]; 0 ppm flumioxazin, untreated 52.1): 193.9 cm | Shoot Length ([3]; 0 ppm imazosulfuron, untreated 11.4): 15.1 cm | Total Root Length ([3]; 0 ppm imazosulfuron, untreated 44.9): 121.9 cm | Shoot Length ([3]; 0.01 ppm dicamba, untreated 11.4): 15.1 cm | Total Root Length ([3]; 0.01 ppm dicamba, untreated 44.9): 155.4 cm | Shoot Length ([3]; 0.01 ppm imazosulfuron, untreated 11.4): 14.5 cm | Total Root Length ([3]; 0.01 ppm imazosulfuron, untreated 44.9): 169.8 cm | Shoot Length ([3]; 0.1 ppm dicamba, untreated 11.4): 12.5 cm | Total Root Length ([3]; 0.1 ppm dicamba, untreated 44.9): 72.5 cm | Shoot Length ([3]; 0.1 ppm flumioxazin, untreated 10.6): 12.3 cm | Total Root Length ([3]; 0.1 ppm flumioxazin, untreated 52.1): 132.6 cm | Shoot Length ([3]; 0.1 ppm imazosulfuron, untreated 11.4): 13.2 cm | Total Root Length ([3]; 0.1 ppm imazosulfuron, untreated 44.9): 83.8 cm | Shoot Length ([3]; 0.3 ppm clodinafop-propargyl, untreated 10.6): 14.3 cm | Total Root Length ([3]; 0.3 ppm clodinafop-propargyl, untreated 52.1): 202.6 cm | Shoot Length ([3]; 0.3 ppm flumioxazin, untreated 10.6): 10.3 cm | Total Root Length ([3]; 0.3 ppm flumioxazin, untreated 52.1): 102.8 cm | Shoot Length ([3]; 1 ppm clodinafop-propargyl, untreated 10.6): 13.6 cm | Total Root Length ([3]; 1 ppm clodinafop-propargyl, untreated 52.1): 110.5 cm | Shoot Length ([3]; 1 ppm dicamba, untreated 11.4): 3.6 cm | Total Root Length ([3]; 1 ppm dicamba, untreated 44.9): 9.2 cm | Shoot Length ([3]; 1 ppm flumioxazin, untreated 10.6): 7.5 cm | Total Root Length ([3]; 1 ppm flumioxazin, untreated 52.1): 53 cm | Shoot Length ([3]; 1 ppm imazosulfuron, untreated 11.4): 7.9 cm | Total Root Length ([3]; 1 ppm imazosulfuron, untreated 44.9): 13.8 cm | Shoot Length ([3]; 3 ppm clodinafop-propargyl, untreated 10.6): 11.8 cm | Total Root Length ([3]; 3 ppm clodinafop-propargyl, untreated 52.1): 44.3 cm | Shoot Length ([3]; 3 ppm flumioxazin, untreated 10.6): 6.5 cm | Total Root Length ([3]; 3 ppm flumioxazin, untreated 52.1): 24.4 cm | Shoot Length ([4]; 0 ppm chlorsulfuron): 5.2 cm | Root Length ([4]; 0 ppm chlorsulfuron): 14.0 cm | Shoot Length ([4]; 1 ppm chlorsulfuron): 2.7 cm | Root Length ([4]; 1 ppm chlorsulfuron): 2.1 cm | Shoot Length ([4]; 10 ppm chlorsulfuron): 1.7 cm | Root Length ([4]; 10 ppm chlorsulfuron): 2.0 cm | Shoot Length ([4]; 100 ppm chlorsulfuron): 1.7 cm | Root Length ([4]; 100 ppm chlorsulfuron): 2.0 cm | protection of root length from herbicide ([4]; PESA salt with chlorsulfuron): unable to overcome the negative effects of chlorsulfuron on root length

Reference: patent US8420574B2, “Plant growth enhancement with combinations of PESA and herbicides” (Valent BioSciences Corporation, priority 2009, dated 2013)
